The values below come from US8609814B2, “Modified globin proteins with altered electron transport pathway” (University of Essex Enterprises Limited, priority 2007, dated 2013).

Test [1] is described as follows: ferryl human haemoglobin reduction kinetics by ascorbate. The format is biochemical. Particulars: reductant ascorbate; 10 μM ferryl protein; sodium phosphate pH 7.4; double exponential fit.
Description: Recombinant human haemoglobin was reacted with peroxide and the kinetics of ferryl haem reduction by ascorbate determined as described in example 1. The time course of ferryl haem reduction is not single exponential, as observed with myoglobin, but can be described using a double exponential function that generates two rate constants, one representing the observed rate constant for ferryl reduction of the alpha subunit and one representing the observed rate constant for ferryl reduction of the beta subunit.
A short description of test [2]: ferryl myoglobin reduction kinetics by deferiprone. To be noted: for concentration dependence of ferryl reduction rate constant (high affinity through-protein electron transfer pathway): reductant deferiprone, ferryl myoglobin 10 μM, sodium phosphate pH 7.4, 25° C. The format is biochemical. The method, then:
In this example the kinetics of the reduction of ferryl haem from myoglobin from different species to ferric haem protein were examined kinetically to determine the presence or absence of a high affinity-through protein pathway. Following the procedure, ferric horse myoglobin from Sigma-Aldrich (Poole, Dorset, UK, further purified by gel filtration), or recombinant ferric Aplysia myoglobin Mb (20 μM) in 5 mM sodium phosphate pH 7.4 was reacted with H2O2 (20 μM) at 25° C. for 15 min. At this time conversion of ferric myoglobin to ferryl myoglobin was greater than 95% as measured by addition of sodium sulfide (1 mM). Catalase (10 nM) was added to remove unreacted H2O2 and was left to react for a further 1 min. At the pH used the ferryl haem protein is stable for several hours. Reductant was then added in 0.1M sodium phosphate pH 7.4 in a 1:1 volume ratio so that final concentration of ferryl myoglobin was 10 μM. The pH may be ‘jumped’ to other values where the ferryl haem is unstable using other strong buffers (e.g. 0.1M sodium acetate, pH 5). The optical spectrum was followed until reaction was complete. The time course (425 nm-408 nm) was fitted to a single exponential function using the least squares method. These rate constants were then plotted as a function of reductant concentration and this profile fitted (least squares method) to a double rectangular hyperbola (FIG. 1):
Where ka and kb are the maximum rates for each hyperbola and KD1 and KD2 are the dissociation constants, S is the concentration of the reductant and AR is the rate constant for ferryl auto-reduction.
Wild-type and recombinant sperm whale myoglobin and recombinant Tyr103>Phe sperm whale myoglobin were reacted with peroxide and the kinetics of ferryl haem reduction by deferiprone determined as described in example 1. The through-protein electron transfer pathway, evident in wild type sperm whale myoglobin, is not observed in the Tyr103>Phe mutant (FIG. 2).

For the molecule “wild type ferryl human haemoglobin: recombinant wild type human haemoglobin, alpha and beta subunits”, the “concentration dependence of ferryl reduction rate constant, alpha subunit” value in test [1] is “double rectangular hyperbola concentration dependence”. For “Tyr103>Phe mutant: recombinant Tyr103>Phe sperm whale myoglobin”, in test [2], the “concentration dependence of ferryl reduction rate constant (high affinity through-protein electron transfer pathway)” value was “not observed”. Same read-out and setting: for “wild type sperm whale myoglobin: wild-type recombinant sperm whale myoglobin” the value was “evident”.

B1: Horse myoglobin: ferric horse myoglobin from Sigma-Aldrich, further purified by gel filtration (protein, UniProt P68082 2-154, looked up)
Myoglobin: GLSDGEWQQVLNVWGKVEADIAGHGQEVLIRLFTGHPETLEKFDKFKHLKTEAEMKASEDLKKHGTVVLTALGGILKKKGHHEAELKPLAQSHATKHKIPIKYLEFISDAIIHVLHSKHPGDFGADAQGAMTKALELFRNDIAAKYKELGFQG
modifications: ferric
notes: ferric horse myoglobin from Sigma-Aldrich, further purified by gel filtration
For B1, the “concentration dependence of ferryl reduction rate constant (high affinity through-protein electron transfer pathway)” value in test [2] is “shows a double rectangular hyperbola concentration dependence”.

B2: myoglobin: myoglobin in its ferryl oxidation state, two site model based on FIGS. 1 and 2 data (protein, UniProt P02144 2-154, looked up)
Myoglobin: GLSDGEWQLVLNVWGKVEADIPGHGQEVLIRLFKGHPETLEKFDKFKHLKSEDEMKASEDLKKHGATVLTALGGILKKKGHHEAEIKPLAQSHATKHKIPVKYLEFISECIIQVLQSKHPGDFGADAQGAMNKALELFRKDMASNYKELGFQG
modifications: ferryl oxidation state
For B2, the “kmax, transfer of an electron through the protein to the ferryl haem iron (high affinity site)” value in test [2] (two site model of FIGS. 1 and 2 data, site at or close to Tyr103) is “≈ 0.01 s^−1”.
